Test results as given in EP4640052A1 (BASF SE, priority 2024, dated 2025).
Several values for one entry are separate records, joined by “and”; a condition that tells them apart may be missing. Equal entries are not always repeated. Where two headings read alike, the source gives them in different places.

How the values were obtained:
[1] = test system: Septoria tritici (SEPTTR); test: microbe, parasite or virus in culture; assay type: cell-based; details: for inhibition of growth at 0.063 ppm / inhibition of growth at 0.25 ppm / inhibition of growth at 1 ppm: Zymoseptoria tritici, 168 h, read-out: Observed efficacy
[2] = test system: Phakopsora pachyrhizi; details: in vivo
[3] = test system: Phakopsora pachyrhizi; test: Green house use example 13: curative control of soybean rust on soybeans (PHAKPA F129L K4); assay type: in vivo
[4] = test system: Puccinia triticina (syn. P. recondita); test: Green house use example 9: curative control of brown rust on wheat (PUCCRT K4); assay type: in vivo
[5] = test system: Sclerotinia sclerotiorum (SCLESC); test: microbe, parasite or virus in culture; assay type: cell-based
[6] = test system: Phakopsora pachyrhizi; test: Green house use example 14: protective control of soybean rust on soybeans (PHAKPA F129L P2); assay type: in vivo; details: single compound, 0.5 ppm
[7] = test system: Pyrenophora teres (PYRNTE), Qol resistant (F129L); test: microbe, parasite or virus in culture; assay type: cell-based
[8] = test system: Blumeria graminis f. sp. tritici; details: in vivo
[9] = test system: Pyricularia oryzae (PYRIOR); test: microbe, parasite or virus in culture; assay type: cell-based; details: for inhibition of growth at 0.016 ppm / inhibition of growth at 0.063 ppm: Pyricularia oryzae, 168 h, read-out: Observed efficacy; for Observed efficacy: single active
[10] = test system: Alternaria solani (ALTESO); test: microbe, parasite or virus in culture; assay type: cell-based; details: Alternaria solani, 168 h, read-out: Observed efficacy
[11] = test system: Cercospora sojina (CERCSO); assay type: cell-based
[12] = test system: Puccinia triticina (syn. P. recondita); test: Green house use example 10: preventative control of brown rust on wheat (PUCCRT P10); assay type: in vivo; details: wheat, sprayed 10 days before inoculation; single active, 1 ppm
[13] = test system: Monilinia sp. (MONISP); test: microbe, parasite or virus in culture; assay type: cell-based; details: Monilinia, 168 h, read-out: Observed efficacy
[14] = test system: Blumeria graminis f. sp. tritici; test: Green house use example 11: control of powdery mildew on wheat, sprayed 2 days after inoculation (ERYSGT K2); assay type: in vivo; details: G143A strain, single active
[15] = test system: Corynespora cassiicola (CORYCA), Qol resistant (G143A); SDHI resistant (N75S in SdHC); assay type: cell-based
[16] = Trial 1, single compound, 4 ppm
[17] = Trial 3, single compound, 4 ppm
[18] = Trial 1, single compound, 1 ppm
[19] = Trial 2, single compound, 1 ppm
[20] = Sclerotinia sclerotiorum, 168 h, read-out: Observed efficacy
[21] = Pyrenophora teres, 168 h, read-out: Observed efficacy

Structure (SMILES) | inhibition of growth at 0.063 ppm [1] [%] | inhibition of growth at 0.25 ppm [1] [%] | Observed efficacy [2] | Observed efficacy [3, 16] | Observed efficacy [3, 17] | Observed efficacy [4, 18] | Observed efficacy [4, 16] | Observed efficacy [4, 19] | inhibition of growth at 0.063 ppm [5, 20] [%] | Observed efficacy [6] | inhibition of growth at 0.016 ppm [7, 21] [%] | inhibition of growth at 0.063 ppm [7, 21] [%] | inhibition of growth at 0.25 ppm [7, 21] [%] | Observed efficacy [8] | inhibition of growth at 0.016 ppm [9] [%] | inhibition of growth at 0.063 ppm [9] [%] | inhibition of growth at 0.016 ppm [10] [%] | inhibition of growth at 0.063 ppm [10] [%] | Observed efficacy [11] | inhibition of growth at 0.063 ppm [13] [%] | other results
CO/C=C(/C(=O)OC)c1cccc(Cl)c1CO/N=C(\COC)c1ccccc1 [I.1, Methyl-(E)-2-[3-chloro-2-[[(Z)-(2-methoxy-1-phenyl-ethylidene)amino]oxymethyl]-phenyl]-3-methoxy-prop-2-enoate] | 0 | 45 | 61 | 37 | 71 | 3 | 58 | 0 | 2 | 80 | 14 | 48 | 72 | 0 | 25 | 64 | 12 | 29 |  |  | 
CO/C=C(/C(=O)OC)c1cccc(C)c1CO/N=C(\COC)c1ccc(F)cc1F [I.7, Methyl (E)-2-[2-[[(Z)-[1-(2,4-difluorophenyl)-2-methoxy-ethylidene]amino]oxymethyl]-3-methyl-phenyl]-3-methoxy-prop-2-enoate] | 0 | 55 |  | 41 | 74 | 9 | 67 |  | 2 | 85 | 19 | 46 | 76 |  | 27 | 66 | 2 | 32 | 2% and 0% | 45 | inhibition of growth at 0.016 ppm [5, 20]: 3%; inhibition of growth at 0.25 ppm [5, 20]: 20%; Observed efficacy [12]: 19; inhibition of growth at 0.004 ppm [10]: 8%
CO/C=C(/C(=O)OC)c1cccc(Cl)c1CO/N=C(\COC)c1c(F)cc(F)cc1F [I.9, Methyl-(E)-2-[3-chloro-2-[[(Z)-[2-methoxy-1-(2,4,6-trifluorophenyl)ethylidene]-amino]oxymethyl]phenyl]-3-methoxy-prop-2-enoate] | 0 | 6 | 60 | 12 | 3 |  |  | 0 | 11 | 59 | 7 | 44 | 74 |  |  | 32 |  | 3 |  | 42 | inhibition of growth at 1 ppm [1]: 60%; Observed efficacy ([4]; Trial 2, single compound, 2 ppm): 0; inhibition of growth at 1 ppm [5, 20]: 50%; inhibition of growth at 0.001 ppm [13]: 17%; inhibition of growth at 0.25 ppm [13]: 76%; inhibition of growth at 0.004 ppm [10]: 1%
CC(Cc1ccc(C(C)(C)C)cc1)CN1C[C@@H](C)O[C@@H](C)C1 (stereo partly shown) [fenpropimorph, reference compound] | 0 | 0 | 0 | 8 |  |  |  |  |  |  |  |  |  | 16 | 0 |  |  |  | 3% |  | inhibition of growth at 1 ppm [1]: 44%; Observed efficacy ([3]; Trial 1, single compound, 12 ppm): 13; Observed efficacy ([3]; Trial 2, single compound, 4 ppm): 6; Observed efficacy ([3]; Trial 2, single compound, 16 ppm): 11; inhibition of growth at 1 ppm [5, 20]: 39%; inhibition of growth at 4 ppm [5, 20]: 65%; Observed efficacy ([14]; 16 ppm): 32; Observed efficacy ([14]; 63 ppm): 35; inhibition of growth at 0.016 ppm [13]: 2%; inhibition of growth at 1 ppm [7, 21]: 33%; inhibition of growth at 0.25 ppm [10]: 18%; inhibition of growth at 1 ppm [10]: 61%
COc1ccnc(C(=O)N[C@@H](C)C(=O)O[C@@H](C)C(c2ccc(F)cc2)c2ccc(F)cc2)c1OC(C)=O [florylpicoxamid, reference compound] |  |  |  |  |  |  |  |  |  |  |  |  |  |  |  |  |  |  | 16% |  | Observed efficacy [15]: 13%; Observed efficacy [7]: 39 and 21; Observed efficacy ([9]; 0.016 ppm): 66%
Cc1nc2c(F)c(F)ccc2cc1Oc1cccc(F)c1C(C)(C)O [ipflufenoquin, reference compound] |  |  |  |  |  |  |  |  |  |  |  |  |  |  |  |  |  |  |  |  | Observed efficacy [1]: 48 and 41 and 26; Observed efficacy [5]: 4 and 3; Observed efficacy [15]: 11%; Observed efficacy ([9]; 0.004 ppm): 12%; Observed efficacy ([9]; 0.016 ppm): 15%; Observed efficacy ([9]; 0.063 ppm): 12%
